Source: patent publication US20110092367A1, “Herbicidal Compositions Comprising 4-amino-3,6-dichloropyridine-2-carboxylic Acid” (BASF SE, priority 2008, published 2011)

What was measured:
Assay type in all cases: in vivo
Matricaria inodora [1] = experiment: Field trial Example 2, combined application: MATIN; conditions: Aminopyralid 7.5 g ai/ha solo
Procedure: (§1) Aminiopyralid was used as commercial aquaeous solution having an active ingredient concentration of 240 g/l (Milestone™). Metazachlor was used as a commercial suspension concentrate having an active ingredient concentration of 500 g/l (Butisan S®).
(§2) The evaluation for the damage on undesired weeds caused by the chemical compositions was carried out using a scale from 0 to 100%, compared to the untreated control plants. Here, 0 means no damage and 100 means complete destruction of the plants.
The value E, which is to be expected if the activity of the individual compounds is just additive, was calculated using the method of S. R. Colby (1967) “Calculating synergistic and antagonistic responses of herbicide combinations”, Weeds 15, p. 22 ff.
The performance of aminopyralid, applied as an alone treatment at […] and 15 g ai/ha, and the performance of metazachlor, applied as an alone treatment at 375 and 500 g ai/ha, as well as the mixtures of the both compounds have been assessed in winter oilseed rape field trials. The trials have been conducted in Germany at two locations.
Post emergence treatment was applied by means of fine distributed nozzels at the growth stage (GS/BBCH 11/12).

Mercurialis annua = experiment: Greenhouse trial, post-emergence: MERAN; conditions: for % activity 28 DAT: MERAN
Procedure: (§3) The test plants have been seeded, separately for each species, in plastic containers in sandy loamy soil containing 5% organic matter.
(§4) For the post emergence treatment, the plants were first grown to the 2 leaf station (GS 12). Here, the herbicidal compositions were suspended or emulsified in water as distribution medium and sprayed using finely distributing nozzels.
(§5) The plants have been cultivated due to there individual requirements at 10-25° C. and 20-35° C. The plants were irrigated due to there necessity. […]
as §2
(§6) Calculation of expected activity of binary mixtures was done by using the Colby-Formula according to Example 1.

Lamium purpureum = experiment: Greenhouse trial, post-emergence: LAMPU; conditions: for % activity 28 DAT: LAMPU
Procedure: as §3, §4, §5, §2, §6

oilseed rape = experiment: Field trial Example 1, successive application: phytotoxicity (PHYTOX) on oilseed rape crop; conditions: for PHYTOX (damage on the oilseed rape crop): DAT 205/DALT 190
Source text: as §1
(§7) The performance of aminopyralid applied as an alone treatment at 15, 30 and 50 g a.i./ha applied as an early post emergence treatment and an post emergence treatment in comparison to two different applications including metazachlor at 500 g a.i./ha as an early post emergence application in succession of aminopyralid as a post emergence application at 15 and 30 g a.i./ha was assessed in an oilseed rape field trials.
(§8) The early post emergence treatment was applied by means of fine distributed nozzles at the growth stage (GS) of the crop BBCH 11-12.
(§9) The post emergence treatment was applied by means of fine distributed nozzles at the growth stage (GS) of the crop BBCH 13-14.
(§10) The test period extended over the autumn and spring season (205 days).
(§11) In the following experiments, the herbicidal activity for the individual herbicide compounds (solo application) and of the herbicidal succession was assessed 4 times:
The evaluation for the damage on the oilseed rape crop, the plant injury or phytotoxicity (PHYTOX) caused by the chemical compositions was carried out using a scale from 0 to 100%, compared to the untreated control plants. Here, 0 means no damage and 100 means high injury of the plants.

Matricaria inodora [2] = experiment: Greenhouse trial, post-emergence: MATIN; conditions: post-emergence (Tables 7-9)
Procedure: as §3, §4, §5, §2, §6

Galium aparine = experiment: Field trial Example 1, successive application: damage on GALAP; conditions: 15 g ai/ha
Source text: as §1, §7, §8, §9, §10, §11, §2

[3] = aminopyralid 5 g ai/ha solo, post-emergence (Table 10)
[4] = aminopyralid 5 g ai/ha solo, post-emergence (Tables 7-9)
[5] = aminopyralid 10 g ai/ha solo, post-emergence (Table 10)
[6] = aminopyralid 10 g ai/ha solo, post-emergence (Tables 7-9)
[7] = Lamium purpureum, post-emergence, 672 h, read-out: % activity 28 DAT, LAMPU

SMILES: Nc1cc(Cl)nc(C(=O)O)c1Cl [aminopyralid, 4-amino-3,6-dichloropyridine-2-carboxylic acid]
- % activity (Matricaria inodora [1]; 28 DAT): 78%
- % activity (Matricaria inodora [1]; 29 DAT): 87%
- % activity 28 DAT (Mercurialis annua; [3]): 70%
- % activity 28 DAT (Mercurialis annua; [4]): 40%
- % activity 28 DAT (Mercurialis annua; [5]): 90%
- % activity 28 DAT (Mercurialis annua; [6]): 75%
- inhibition at 10 g/ha (Mercurialis annua; Mercurialis annua, post-emergence, 672 h, read-out: % activity 28 DAT, MERAN): 90%
- % activity 28 DAT (Lamium purpureum; [3]): 20%
- % activity 28 DAT (Lamium purpureum; [4]): 30%
- % activity 28 DAT (Lamium purpureum; [5]): 30%
- % activity 28 DAT (Lamium purpureum; [6]): 65%
- inhibition at 5 g/ha (Lamium purpureum; [7]): 20%
- inhibition at 10 g/ha (Lamium purpureum; [7]): 30%
- PHYTOX (damage on oilseed rape crop) (oilseed rape; 15 g ai/ha, treatment A early post emergence, DAT 25/DALT 10): 11%
- PHYTOX (damage on oilseed rape crop) (oilseed rape; 15 g ai/ha, treatment A early post emergence, DAT 65/DALT 50): 3%
- PHYTOX (damage on oilseed rape crop) (oilseed rape; 15 g ai/ha, treatment A early post emergence, DAT 176/DALT 161): 2%
- PHYTOX (damage on oilseed rape crop) (oilseed rape; 15 g ai/ha, treatment B post emergence, DAT 25/DALT 10): 0%
- PHYTOX (damage on oilseed rape crop) (oilseed rape; 15 g ai/ha, treatment B post emergence, DAT 65/DALT 50): 0%
- PHYTOX (damage on oilseed rape crop) (oilseed rape; 15 g ai/ha, treatment B post emergence, DAT 176/DALT 161): 0%
- PHYTOX (damage on oilseed rape crop) (oilseed rape; 30 g ai/ha, treatment A early post emergence, DAT 25/DALT 10): 27%
- PHYTOX (damage on oilseed rape crop) (oilseed rape; 30 g ai/ha, treatment A early post emergence, DAT 65/DALT 50): 30%
- PHYTOX (damage on oilseed rape crop) (oilseed rape; 30 g ai/ha, treatment A early post emergence, DAT 176/DALT 161): 0%
- PHYTOX (damage on oilseed rape crop) (oilseed rape; 30 g ai/ha, treatment B post emergence, DAT 25/DALT 10): 0%
- PHYTOX (damage on oilseed rape crop) (oilseed rape; 30 g ai/ha, treatment B post emergence, DAT 65/DALT 50): 0%
- PHYTOX (damage on oilseed rape crop) (oilseed rape; 30 g ai/ha, treatment B post emergence, DAT 176/DALT 161): 0%
- PHYTOX (damage on oilseed rape crop) (oilseed rape; 50 g ai/ha, treatment A early post emergence, DAT 25/DALT 10): 40%
- PHYTOX (damage on oilseed rape crop) (oilseed rape; 50 g ai/ha, treatment A early post emergence, DAT 65/DALT 50): 50%
- PHYTOX (damage on oilseed rape crop) (oilseed rape; 50 g ai/ha, treatment A early post emergence, DAT 176/DALT 161): 0%
- PHYTOX (damage on oilseed rape crop) (oilseed rape; 50 g ai/ha, treatment B post emergence, DAT 25/DALT 10): 7%
- PHYTOX (damage on oilseed rape crop) (oilseed rape; 50 g ai/ha, treatment B post emergence, DAT 65/DALT 50): 0%
- PHYTOX (damage on oilseed rape crop) (oilseed rape; 50 g ai/ha, treatment B post emergence, DAT 176/DALT 161): 0%
- PHYTOX (damage on the oilseed rape crop) (oilseed rape; aminopyralid 15 g ai/ha, treatment A): 0%
- PHYTOX (damage on the oilseed rape crop) (oilseed rape; aminopyralid 15 g ai/ha, treatment B): 0%
- PHYTOX (damage on the oilseed rape crop) (oilseed rape; aminopyralid 30 g ai/ha, treatment A): 0%
- PHYTOX (damage on the oilseed rape crop) (oilseed rape; aminopyralid 30 g ai/ha, treatment B): 0%
- PHYTOX (damage on the oilseed rape crop) (oilseed rape; aminopyralid 50 g ai/ha, treatment A): 0%
- PHYTOX (damage on the oilseed rape crop) (oilseed rape; aminopyralid 50 g ai/ha, treatment B): 0%
- % activity 28 DAT (Matricaria inodora [2]; aminopyralid 5 g ai/ha solo): 35%
- % activity 28 DAT (Matricaria inodora [2]; aminopyralid 10 g ai/ha solo): 80%
- damage on GALAP (Galium aparine; treatment A early post emergence, DAT 25/DALT 10): 67%
- damage on GALAP (Galium aparine; treatment A early post emergence, DAT 65/DALT 50): 77%
- damage on GALAP (Galium aparine; treatment A early post emergence, DAT 176/DALT 161): 86%
- damage on GALAP (Galium aparine; treatment B post emergence, DAT 25/DALT 10): 72%
- damage on GALAP (Galium aparine; treatment B post emergence, DAT 65/DALT 50): 78%
